Data as given in the OligoGym collection.
HELM strings list units from the 5' end as sugar, base in round brackets, then linkage (d deoxyribose, r ribose, m 2'-O-methyl, p phosphodiester). Strings are as the collection lists them; they lack the last nucleoside at the 3' end of the tested compound. [moe] = 2'-O-(2-methoxyethyl) (MOE); [sp] = phosphorothioate linkage; [m5C] = 5-methylcytosine

Target: UBE3A-ATS
Assay: mouse, dose not given
Settings: ASO

“RNA1{[moe](G)[sp].[moe]([m5C])p.[moe](T)p.[moe](G)p.[moe](A)p.[moe](T)[sp].d([m5C])[sp].d(A)[sp].d([m5C])[sp].d(A)[sp].d(T)[sp].d(T)[sp].d(A)[sp].d([m5C])[sp].[moe]([m5C])p.[moe]([m5C])[sp].[moe](A)}$$$$ (last 3' nucleoside missing)” was tested, and the 3 h FOB score was 0 score 0-7.

With “RNA1{[moe](G)[sp].[moe]([m5C])p.[moe](T)p.[moe](G)p.[moe](A)p.[moe](T)p.d([m5C])[sp].d(A)[sp].d([m5C])[sp].d(A)[sp].d(T)[sp].d(T)[sp].d(A)[sp].d([m5C])[sp].d([m5C])[sp].d([m5C])[sp].[moe](A)p.[moe](T)[sp].[moe]([m5C])}$$$$ (last 3' nucleoside missing)” the 3 h FOB score was 0 score 0-7.

Work on “RNA1{[moe](G)[sp].[moe]([m5C])p.[moe](T)p.[moe](G)p.[moe](A)p.d(T)[sp].d([m5C])[sp].d(A)[sp].d([m5C])[sp].d(A)[sp].d(T)[sp].d(T)[sp].d(A)[sp].d([m5C])[sp].d([m5C])[sp].[moe]([m5C])p.[moe](A)p.[moe](T)[sp].[moe]([m5C])}$$$$ (last 3' nucleoside missing)” yielded a 3 h FOB score of 0 score 0-7.

Work on “RNA1{[moe](G)[sp].[moe]([m5C])p.[moe](T)p.[moe](G)p.[moe](T)p.d(A)[sp].d(A)[sp].d(G)[sp].d(T)[sp].d(A)[sp].d(T)[sp].d(A)[sp].d(G)[sp].d(A)[sp].d(T)[sp].[moe](G)p.[moe]([m5C])p.[moe]([m5C])[sp].[moe](T)}$$$$ (last 3' nucleoside missing)” yielded a 3 h FOB score of 2 score 0-7.

“RNA1{[moe](G)[sp].[moe]([m5C])p.[moe](T)p.[moe](G)p.d(A)[sp].d(T)[sp].d([m5C])[sp].d(A)[sp].d([m5C])[sp].d(A)[sp].d(T)[sp].d(T)[sp].d(A)[sp].d([m5C])[sp].[moe]([m5C])p.[moe]([m5C])p.[moe](A)p.[moe](T)[sp].[moe]([m5C])}$$$$ (last 3' nucleoside missing)” showed a 3 h FOB score of 0 score 0-7.

For “RNA1{[moe](G)[sp].[moe]([m5C])p.[moe](T)p.[moe](T)p.[moe](A)p.d(G)[sp].d(G)[sp].d([m5C])[sp].d(A)[sp].d(A)[sp].d(T)[sp].d(G)[sp].d(G)[sp].d(A)[sp].d([m5C])[sp].[moe](T)p.[moe](T)p.[moe](A)[sp].[moe](G)}$$$$ (last 3' nucleoside missing)”, the 3 h FOB score was 5.5 score 0-7.

“RNA1{[moe](G)[sp].[moe]([m5C])p.[moe](T)p.[moe](T)p.[moe](A)p.d(T)[sp].d(G)[sp].d(T)[sp].d(A)[sp].d(G)[sp].d([m5C])[sp].d(T)[sp].d([m5C])[sp].d(A)[sp].d(G)[sp].[moe]([m5C])p.[moe](T)p.[moe]([m5C])[sp].[moe](A)}$$$$ (last 3' nucleoside missing)” gave a 3 h FOB score of 1 score 0-7.

Substance “RNA1{[moe](G)[sp].[moe]([m5C])p.[moe](T)p.[moe](T)p.[moe](T)p.d(A)[sp].d(G)[sp].d(T)[sp].d(A)[sp].d(T)[sp].d(G)[sp].d(T)[sp].d([m5C])[sp].d(G)[sp].d(A)[sp].[moe](G)p.[moe](A)p.[moe](A)[sp].[moe]([m5C])}$$$$ (last 3' nucleoside missing)” has a 3 h FOB score of 6 score 0-7.

For “RNA1{[moe](G)[sp].[moe]([m5C])p.[moe](T)p.[moe](T)p.[moe](T)p.d(A)[sp].d(T)[sp].d(A)[sp].d([m5C])[sp].d(T)[sp].d(T)[sp].d(T)[sp].d(A)[sp].d([m5C])[sp].d([m5C])[sp].[moe]([m5C])p.[moe](A)p.[moe](A)[sp].[moe]([m5C])}$$$$ (last 3' nucleoside missing)”, the 3 h FOB score was 1 score 0-7.

In the case of “RNA1{[moe](G)[sp].[moe]([m5C])p.[moe](T)p.[moe](T)p.[moe](T)p.d(T)[sp].d([m5C])[sp].d(A)[sp].d(G)[sp].d(T)[sp].d([m5C])[sp].d(A)[sp].d(G)[sp].d(G)[sp].d(T)[sp].[moe](A)p.[moe]([m5C])p.[moe](A)[sp].[moe](G)}$$$$ (last 3' nucleoside missing)”, the 3 h FOB score is reported as 6 score 0-7.

“RNA1{[moe](G)[sp].[moe]([m5C])p.[moe](T)p.[moe](T)p.[moe]([m5C])p.[moe](A)p.d([m5C])[sp].d([m5C])[sp].d(A)[sp].d(T)[sp].d(T)[sp].d(T)[sp].d(T)[sp].d(G)[sp].d(A)[sp].d([m5C])[sp].[moe]([m5C])p.[moe](T)[sp].[moe](T)}$$$$ (last 3' nucleoside missing)” was tested, and the 3 h FOB score was 1 score 0-7.

In the case of “RNA1{[moe](G)[sp].[moe]([m5C])p.[moe](T)p.[moe](T)p.[moe]([m5C])p.d(A)[sp].d([m5C])[sp].d([m5C])[sp].d(A)[sp].d(T)[sp].d(T)[sp].d(T)[sp].d(T)[sp].d(G)[sp].d(A)[sp].[moe]([m5C])p.[moe]([m5C])p.[moe](T)[sp].[moe](T)}$$$$ (last 3' nucleoside missing)”, the 3 h FOB score is reported as 2.2 score 0-7.

“RNA1{[moe](G)[sp].[moe]([m5C])p.[moe](T)p.[moe](T)p.d([m5C])[sp].d(A)[sp].d([m5C])[sp].d([m5C])[sp].d(A)[sp].d(T)[sp].d(T)[sp].d(T)[sp].d(T)[sp].d(G)[sp].[moe](A)p.[moe]([m5C])p.[moe]([m5C])p.[moe](T)[sp].[moe](T)}$$$$ (last 3' nucleoside missing)” showed a 3 h FOB score of 0 score 0-7.

With “RNA1{[moe](G)[sp].[moe]([m5C])p.[moe](T)p.[moe]([m5C])[sp].d(A)[sp].d(G)[sp].d(T)[sp].d(T)[sp].d(A)[sp].d(G)[sp].d(G)[sp].d(T)[sp].[moe](T)p.[moe](A)p.[moe](G)p.[moe](T)[sp].[moe](G)}$$$$ (last 3' nucleoside missing)” the 3 h FOB score was 4 score 0-7.

With “RNA1{[moe](G)[sp].[moe]([m5C])p.[moe](T)p.[moe]([m5C])p.[moe](A)[sp].d(G)[sp].d(T)[sp].d(T)[sp].d(A)[sp].d(G)[sp].d(G)[sp].d(T)[sp].d(T)[sp].[moe](A)p.[moe](G)p.[moe](T)[sp].[moe](G)}$$$$ (last 3' nucleoside missing)” the 3 h FOB score was 2.3 score 0-7.

For “RNA1{[moe](G)[sp].[moe]([m5C])p.[moe](T)p.[moe]([m5C])p.[moe](A)p.[moe](G)[sp].d(T)[sp].d(T)[sp].d(A)[sp].d(G)[sp].d(G)[sp].d(T)[sp].d(T)[sp].d(A)[sp].[moe](G)p.[moe](T)[sp].[moe](G)}$$$$ (last 3' nucleoside missing)”, the 3 h FOB score was 5 score 0-7.

Work on “RNA1{[moe](G)[sp].[moe]([m5C])p.[moe](T)p.[moe]([m5C])p.[moe](A)p.[moe](G)p.d(T)[sp].d(T)[sp].d(A)[sp].d(G)[sp].d(G)[sp].d(T)[sp].d(T)[sp].d(A)[sp].d(G)[sp].d(T)[sp].[moe](G)p.[moe]([m5C])[sp].[moe](A)}$$$$ (last 3' nucleoside missing)” yielded a 3 h FOB score of 4 score 0-7.

For “RNA1{[moe](G)[sp].[moe]([m5C])p.[moe](T)p.[moe]([m5C])p.[moe](A)p.d(G)[sp].d(T)[sp].d(T)[sp].d(A)[sp].d(G)[sp].d(G)[sp].d(T)[sp].d(T)[sp].d(A)[sp].d(G)[sp].[moe](T)p.[moe](G)p.[moe]([m5C])[sp].[moe](A)}$$$$ (last 3' nucleoside missing)”, the 3 h FOB score was 3.8 score 0-7.

“RNA1{[moe](G)[sp].[moe]([m5C])p.[moe](T)p.[moe]([m5C])p.[moe](A)p.d(T)[sp].d([m5C])[sp].d(A)[sp].d([m5C])[sp].d(A)[sp].d(A)[sp].d([m5C])[sp].d(T)[sp].d(G)[sp].d(G)[sp].[moe](G)p.[moe](T)p.[moe](G)[sp].[moe](G)}$$$$ (last 3' nucleoside missing)” gave a 3 h FOB score of 1 score 0-7.

Work on “RNA1{[moe](G)[sp].[moe]([m5C])p.[moe](T)p.[moe]([m5C])p.d(A)[sp].d(G)[sp].d(T)[sp].d(T)[sp].d(A)[sp].d(G)[sp].d(G)[sp].d(T)[sp].d(T)[sp].d(A)[sp].[moe](G)p.[moe](T)p.[moe](G)p.[moe]([m5C])[sp].[moe](A)}$$$$ (last 3' nucleoside missing)” yielded a 3 h FOB score of 4 score 0-7.

In the case of “RNA1{[moe](G)[sp].[moe]([m5C])p.[moe]([m5C])p.[moe](A)[sp].d(G)[sp].d(G)[sp].d(T)[sp].d(G)[sp].d(T)[sp].d([m5C])[sp].d(T)[sp].d(T)[sp].[moe](A)p.[moe](T)p.[moe](A)p.[moe](T)[sp].[moe]([m5C])}$$$$ (last 3' nucleoside missing)”, the 3 h FOB score is reported as 1 score 0-7.

With “RNA1{[moe](G)[sp].[moe]([m5C])p.[moe]([m5C])p.[moe](A)p.[moe](G)[sp].d(G)[sp].d(T)[sp].d(G)[sp].d(T)[sp].d([m5C])[sp].d(T)[sp].d(T)[sp].d(A)[sp].[moe](T)p.[moe](A)p.[moe](T)[sp].[moe]([m5C])}$$$$ (last 3' nucleoside missing)” the 3 h FOB score was 0 score 0-7.

“RNA1{[moe](G)[sp].[moe]([m5C])p.[moe]([m5C])p.[moe](A)p.[moe](G)p.[moe](G)[sp].d(T)[sp].d(G)[sp].d(T)[sp].d([m5C])[sp].d(T)[sp].d(T)[sp].d(A)[sp].d(T)[sp].[moe](A)p.[moe](T)[sp].[moe]([m5C])}$$$$ (last 3' nucleoside missing)” was tested, and the 3 h FOB score was 0 score 0-7.

Work on “RNA1{[moe](G)[sp].[moe]([m5C])p.[moe]([m5C])p.[moe](A)p.[moe](G)p.[moe](G)p.d(T)[sp].d(G)[sp].d(T)[sp].d([m5C])[sp].d(T)[sp].d(T)[sp].d(A)[sp].d(T)[sp].d(A)[sp].d(T)[sp].[moe]([m5C])p.[moe](T)[sp].[moe](A)}$$$$ (last 3' nucleoside missing)” yielded a 3 h FOB score of 0 score 0-7.

“RNA1{[moe](G)[sp].[moe]([m5C])p.[moe]([m5C])p.[moe](A)p.[moe](G)p.d(G)[sp].d(T)[sp].d(G)[sp].d(T)[sp].d([m5C])[sp].d(T)[sp].d(T)[sp].d(A)[sp].d(T)[sp].d(A)[sp].[moe](T)p.[moe]([m5C])p.[moe](T)[sp].[moe](A)}$$$$ (last 3' nucleoside missing)” gave a 3 h FOB score of 0 score 0-7.

For “RNA1{[moe](G)[sp].[moe]([m5C])p.[moe]([m5C])p.[moe](A)p.d(G)[sp].d(G)[sp].d(T)[sp].d(G)[sp].d(T)[sp].d([m5C])[sp].d(T)[sp].d(T)[sp].d(A)[sp].d(T)[sp].[moe](A)p.[moe](T)p.[moe]([m5C])p.[moe](T)[sp].[moe](A)}$$$$ (last 3' nucleoside missing)”, the 3 h FOB score was 1 score 0-7.

With “RNA1{[moe](G)[sp].[moe]([m5C])p.[moe]([m5C])p.[moe](T)p.[moe](G)p.d([m5C])[sp].d(T)[sp].d([m5C])[sp].d(A)[sp].d(A)[sp].d(A)[sp].d(T)[sp].d([m5C])[sp].d(T)[sp].d(G)[sp].[moe]([m5C])p.[moe](G)p.[moe](A)[sp].[moe](A)}$$$$ (last 3' nucleoside missing)” the 3 h FOB score was 2 score 0-7.
